≈ marks a conversion by molar mass, not a printed value. Read-outs that look alike come from different tables or passages of the source.

In data set [1] the test system is chloroquine resistant P. falciparum DD2 strain. The experiment in a line: In vitro growth of P. falciparum DD2, 3H-hypoxanthine uptake (Example 15). The format is cell-based, Plasmodium falciparum. Conditions: title: percentage inhibition of 3H-hypoxanthine uptake.
The subject of a further data set is L. major promastigotes. As to the kind of experiment: L. major promastigotes from 4-days cultures, 3H-thymidine uptake (Examples 5, 14). The format is cell-based, Leishmania major. As to conditions: Leishmania major, Table 14.1, read-out: percentage inhibition of promastigotes (upper figure). In a few lines: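 Promastigotes harvested on day 4 of culture were exposed to compound, then pulsed with 100 μC 3H-thymidine for a further 18 h. Cells were collected on filter paper, washed, and incorporated radioactivity counted by scintillation.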

Data set [2] has as its system chloroquine-sensitive P. falciparum 3D7A strain. As to the kind of experiment: In vitro growth of P. falciparum 3D7A, 3H-hypoxanthine uptake (Example 15). The format is cell-based, Plasmodium falciparum. Conditions: for Percentage inhibition of 3H-hypoxanthine uptake (mean ± SEM): title: percentage inhibition of 3H-hypoxanthine uptake.
Another data set relates to P. falciparum. As to the kind of experiment: P. falciparum growth in vitro (Table 14.1, strain not stated). The format is cell-based. Conditions: Plasmodium falciparum, read-out: inhibition of malaria parasites (middle figure) (converted). The method in brief: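 Parasitized erythrocytes (~1% parasitemia) in RPMI with graded compound concentrations, cultured 48 h. 3H-hypoxanthine added for the final 24 h. Growth measured as 3H-hypoxanthine incorporation into parasite DNA by liquid scintillation.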

A short description of data set [3]: 4-Hydroxychalcone toxicity study in mice, i.p. (Example 22). The format is in vivo, BALB/c female mice. Conditions: for No. died after 24 h: n 4. How it is done: Mice. BALB/c female mice, 8 weeks old, 20 g body weight.
Drug. 4Hydroxychalcone prepared as in Example 2.
LD50. 80 mg of 4hydroxychalcone was dissolved in 0.2 ml of 99% (v/v) ethanol, and then mixed with 240 mg of Brij 35 dissolved in 19.8 ml of buffer pH 73 (NaH2PO4.H2O 26 mg, Na2HPO4.2H2O 520 mg and distilled water 100 ml), and then sterile filtered through a 0.22 μm Millipore filter. Drug was injected intraperitoneally into mice once.

The test system of the next data set is human lymphocytes. The experiment in a line: Lymphocyte Proliferation Assay, 3H-thymidine incorporation (Example 13). Conditions: Homo sapiens, Lymphocyte, read-out: inhibition of lymphocytes (lower figure).
Data set [4] relates to Strain = H37RV. As to the kind of experiment: MIC with and without 10% human serum. The format is cell-based. Conditions: Mycobacterium tuberculosis, H37RV.
The test system of data set [5] is Strain = H37RV. Conditions: cited from earlier work.
Setting [6] is: with 10% Human Serum, read-out: MIC+serum.
Setting [7] is: without 10% Human Serum, read-out: MIC−serum.

In the case of `C=CCOc1ccc(C(=O)/C=C/c2cccc(OC)c2OC)cc1` [2,3-Dimethoxy-4′-allyloxychalcone, 2,3-dimethoxy-4′-prop-2-enyloxychalcone], the melting point (usually the temperature of the solid-liquid transition) is 98 to 99 °C. Besides, the “Growth in % of control (mean ± SEM)” value in [1] (0.5 μg/ml) is 28.5 ± 9.6%. Besides, the “Growth in % of control (mean ± SEM)” value in data set [1] (1 μg/ml) turned out to be 29.6 ± 10.9%. The “Growth in % of control (mean ± SEM)” value in data set [1] (5 μg/ml) worked out at 22.2 ± 10.1%. Besides, the “Growth in % of control (mean ± SEM)” value in data set [1] (10 μg/ml) is reported as 49.9 ± 9.1%.

The compound `C=CCOc1ccc(C(=O)/C=C/c2c(OC)cccc2OC)cc1` [2,6-Dimethoxy-4′-allyloxychalcone, 2,6-dimethoxy-4′-prop-2-enyloxychalcone] showed a melting point of 102 to 103 °C. Further, in data set [1] (0.5 μg/ml), the “Growth in % of control (mean ± SEM)” value turned out to be 23.3 ± 10.9%. Besides, the “Growth in % of control (mean ± SEM)” value in [1] (1 μg/ml) is 24.3 ± 9.5%. The “Growth in % of control (mean ± SEM)” value in data set [1] (5 μg/ml) stood at 40.2 ± 8.7%. Moreover, the “Growth in % of control (mean ± SEM)” value in [1] (10 μg/ml) is on record as 56.7 ± 8.9%.

Compound `COc1ccc(/C=C/C(=O)c2ccc(O)cc2)cc1OC` [3,4-Dimethoxy-4′-hydroxychalcone, 3,4-dimethoxy-4′-hydroxychalcone] registered a melting point of 193 to 198 °C. Further, the “Growth in % of control (mean ± SEM)” value in data set [1] (0.5 μg/ml) came to 9.3 ± 9.2%. Besides, in data set [1] (1 μg/ml), the “Growth in % of control (mean ± SEM)” value is on record as 7.1 ± 8.1%. Also, the “Growth in % of control (mean ± SEM)” value in data set [1] (5 μg/ml) worked out at 48.5 ± 8.4%. The “Growth in % of control (mean ± SEM)” value in data set [1] (10 μg/ml) worked out at 82.6 ± 4.7%.

In the case of `O=C(/C=C/c1ccc(O)cc1)c1ccccc1` [4-Hydroxychalcone, 4-hydroxychalcone], the inhibition (commonly the change of the read-out against control, counted positive when it falls) at 0.5 µg/mL with L. major promastigotes (0.5 μg/ml) was 7%; in the data set on P. falciparum (0.5 μg/ml), 20.5%. In addition, the inhibition at 1 µg/mL is 49.1 ± 16.8% in the data set on L. major promastigotes (1 μg/ml), 29.2% with P. falciparum (1 μg/ml) and 2.24% in the data set on human lymphocytes. The values for the inhibition at 5 µg/mL in the data set with L. major promastigotes (5 μg/ml), in the data set on P. falciparum (5 μg/ml) and in the data set on human lymphocytes were 80.1 ± 12.6%, 61.3% and 7.73%, respectively. For the same compound, the inhibition at 10 µg/mL is 91 ± 5.4% in the data set on L. major promastigotes (10 μg/ml), 88.2% with P. falciparum (10 μg/ml) and 14.2% in the data set with human lymphocytes. For the same compound, the IC50 in data set [2] (Plasmodium falciparum, read-out: concentration in which growth was retarded by 50%) fell in the range of 1 to 5 µg/mL (≈ 4.46 to 22.3 µM). Also, the “Percentage inhibition of 3H-hypoxanthine uptake (mean ± SEM)” value in [2] (0.5 μg/ml) is reported as 20.5 ± 10.9%; in [2] (1 μg/ml), 29.2 ± 7.7%; in [2] (5 μg/ml), 61.3 ± 10.6%; in data set [2] (10 μg/ml) it was 88.2 ± 5.3%. The “No. died after 24 h” value was 0 in [3] (50 mg/kg i.p.), 0 in data set [3] (100 mg/kg i.p.), 1 in [3] (200 mg/kg i.p.) and 2 in [3] (400 mg/kg i.p.). In addition, the “LD50, intraperitoneally” value in data set [3] (mice) was found to be 400 mg per kg.

For `CC[C@@H](CO)NCCN[C@@H](CC)CO` [Ethambutol], the MIC – broadly, the lowest concentration found to suppress growth – in the data set with Strain = H37RV [4] (setting [6]) came out at 2 µg/mL (≈ 9.79 µM); with Strain = H37RV [4] (setting [7]), 1 µg/mL (≈ 4.89 µM). Also, the protein binding entry with Strain = H37RV [5] is listed as “(40% protein”.

Consider `CC(=O)O[C@H]1C[C@@]2(C)[C@@H](C[C@@H](O)[C@H]3[C@@]4(C)CC[C@@H](O)[C@@H](C)[C@@H]4CC[C@@]32C)/C1=C(\CCC=C(C)C)C(=O)O` [Fusidic acid], for which the values for the minimal inhibitory concentration (MIC) in the data set on Strain = H37RV [4] (setting [6]) and in the data set on Strain = H37RV [4] (setting [7]) were 32 µg/mL (≈ 61.9 µM) and 8 µg/mL (≈ 15.5 µM), respectively. In the data set with Strain = H37RV [5], the protein binding entry is “(90% protein”.

In the case of `CC1COc2c(N3CCN(C)CC3)c(F)cc3c(=O)c(C(=O)O)cn1c23` (stereo not drawn) [Ofloxacin], the MIC in the data set with Strain = H37RV [4] (setting [6]) and in the data set with Strain = H37RV [4] (setting [7]) was 0.5 µg/mL (≈ 1.38 µM) each time. Moreover, the protein binding entry in the data set on Strain = H37RV [5] is “(5% protein”.
